Reference: patent US10344060B2 (priority 2013, dated 2019)
Like-named read-outs stand apart in the source and are kept apart here.

Target: hNav1.7 (Homo sapiens, UniProt Q15858)
Assay: cell-based
Format: cell-based
Conditions: for Nav1.4/Nav1.7 / Nav1.5/Nav1.7: ratio of PX tonic IC50 values
[1] = Table 12, PatchXpress, tonic block, read-out: PX hNav1.7 Tonic IC50

Chain of hNav1.7 (Q15858 whole entry): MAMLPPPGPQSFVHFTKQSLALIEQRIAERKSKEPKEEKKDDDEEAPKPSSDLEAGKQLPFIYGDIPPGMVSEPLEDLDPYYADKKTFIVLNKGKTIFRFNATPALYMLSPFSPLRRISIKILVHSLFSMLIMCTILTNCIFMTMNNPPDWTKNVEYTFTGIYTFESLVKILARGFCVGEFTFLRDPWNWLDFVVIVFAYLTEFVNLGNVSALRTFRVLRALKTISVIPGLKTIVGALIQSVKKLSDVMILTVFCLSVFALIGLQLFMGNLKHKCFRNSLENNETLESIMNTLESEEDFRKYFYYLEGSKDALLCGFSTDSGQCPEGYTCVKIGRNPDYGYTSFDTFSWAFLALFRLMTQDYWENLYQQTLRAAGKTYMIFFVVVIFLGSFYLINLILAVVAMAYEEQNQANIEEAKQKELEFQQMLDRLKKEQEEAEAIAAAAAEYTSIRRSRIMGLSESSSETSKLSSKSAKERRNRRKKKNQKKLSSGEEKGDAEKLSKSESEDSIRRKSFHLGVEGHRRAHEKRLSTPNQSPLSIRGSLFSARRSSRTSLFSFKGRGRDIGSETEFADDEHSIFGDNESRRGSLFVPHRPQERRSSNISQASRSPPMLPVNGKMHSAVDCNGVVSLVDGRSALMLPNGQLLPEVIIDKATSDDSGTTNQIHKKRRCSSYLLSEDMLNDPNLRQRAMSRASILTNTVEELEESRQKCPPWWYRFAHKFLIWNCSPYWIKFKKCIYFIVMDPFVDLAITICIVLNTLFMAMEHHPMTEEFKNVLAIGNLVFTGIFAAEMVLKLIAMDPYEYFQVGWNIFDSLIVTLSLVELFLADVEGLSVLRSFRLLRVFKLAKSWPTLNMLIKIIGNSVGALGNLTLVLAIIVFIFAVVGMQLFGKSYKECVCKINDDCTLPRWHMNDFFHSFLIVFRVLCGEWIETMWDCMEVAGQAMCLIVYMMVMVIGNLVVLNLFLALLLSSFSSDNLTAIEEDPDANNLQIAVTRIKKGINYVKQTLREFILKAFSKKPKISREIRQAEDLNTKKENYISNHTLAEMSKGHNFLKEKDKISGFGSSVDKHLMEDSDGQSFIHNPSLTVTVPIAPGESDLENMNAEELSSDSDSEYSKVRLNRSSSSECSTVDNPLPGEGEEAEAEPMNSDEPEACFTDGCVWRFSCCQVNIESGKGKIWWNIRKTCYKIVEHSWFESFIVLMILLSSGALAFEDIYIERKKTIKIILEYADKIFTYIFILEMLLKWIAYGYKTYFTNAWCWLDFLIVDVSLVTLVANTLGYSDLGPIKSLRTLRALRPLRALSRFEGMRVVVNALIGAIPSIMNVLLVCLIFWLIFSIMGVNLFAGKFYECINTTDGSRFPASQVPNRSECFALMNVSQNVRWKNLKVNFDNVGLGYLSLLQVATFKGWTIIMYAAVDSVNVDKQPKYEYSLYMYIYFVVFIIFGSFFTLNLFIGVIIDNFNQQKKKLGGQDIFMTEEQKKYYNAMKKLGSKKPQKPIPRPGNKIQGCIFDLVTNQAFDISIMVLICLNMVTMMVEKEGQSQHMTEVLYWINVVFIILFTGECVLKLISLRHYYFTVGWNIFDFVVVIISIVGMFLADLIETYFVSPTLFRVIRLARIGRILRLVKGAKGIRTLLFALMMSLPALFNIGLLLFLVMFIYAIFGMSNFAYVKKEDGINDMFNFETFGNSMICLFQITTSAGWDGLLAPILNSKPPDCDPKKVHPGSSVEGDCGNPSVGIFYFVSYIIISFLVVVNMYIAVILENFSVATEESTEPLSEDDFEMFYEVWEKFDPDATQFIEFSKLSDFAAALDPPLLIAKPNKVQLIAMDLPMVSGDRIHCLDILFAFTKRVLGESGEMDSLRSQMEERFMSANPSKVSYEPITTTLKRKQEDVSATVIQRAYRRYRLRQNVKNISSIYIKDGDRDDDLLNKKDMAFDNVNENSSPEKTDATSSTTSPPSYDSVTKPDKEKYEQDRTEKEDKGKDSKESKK

| Compound | Nav1.4/Nav1.7 (Table 11) | IC50 [1] [nM] | other results |
| --- | --- | --- | --- |
| CCCC[C@@H]1NC(=O)[C@H](Cc2c[nH]c3ccccc23)NC(=O)[C@H](CCCCN)NC(=O)[C@H](CCC(N)=O)NC(=O)[C@@H](NC(=O)[C@H](Cc2ccc(O)cc2)NC(=O)[C@@H](N)CC#N)CSSC[C@@H]2NC(=O)[C@@H]3CSSC[C@@H](C(=O)N[C@@H](CCCNC(=N)N)C(=O)N[C@@H](CCCCN)C(=O)N[C@H](C(=O)N[C@@H](Cc4c[nH]c5ccccc45)C(N)=O)[C@@H](C)CC)NC(=O)[C@H](Cc4c[nH]c5ccccc45)NC(=O)[C@H](CC(C)C)NC(=O)[C@H](CCCCN)NC(=O)[C@H](CSSC[C@H](NC(=O)[C@H]([C@@H](C)O)NC(=O)[C@H](Cc4c[nH]c5ccccc45)NC1=O)C(=O)N[C@@H](CC(=O)O)C(=O)N[C@@H](CO)C(=O)N[C@@H](CCCCN)C(=O)N[C@@H](CCCNC(=N)N)C(=O)N[C@@H](C)C(=O)N3)NC(=O)[C@H](CCCCNC(=O)CCOCCOCCOCCOCCOCCOCCOCCOCCOCCOCCOCCOCCN)NC(=O)[C@H](CC(C)C)NC(=O)CNC(=O)[C@H](CCC(=O)O)NC2=O [compound 476] | 13 | – | Nav1.5/Nav1.7 (Table 11): 71 |
| CCCC[C@@H]1NC(=O)[C@H](Cc2c[nH]c3ccccc23)NC(=O)[C@H](CCCCN)NC(=O)[C@H](CCC(N)=O)NC(=O)[C@@H](NC(=O)[C@H](Cc2ccccc2)NC(=O)[C@@H](N)CC#N)CSSC[C@@H]2NC(=O)[C@@H]3CSSC[C@@H](C(=O)N[C@@H](CCCNC(=N)N)C(=O)N[C@@H](CCCCN)C(=O)N[C@@H](CCC(=O)O)C(=O)N[C@H](C(N)=O)[C@@H](C)CC)NC(=O)[C@H](Cc4c[nH]c5ccccc45)NC(=O)[C@H](CC(C)C)NC(=O)[C@H](CCCCN)NC(=O)[C@H](CSSC[C@H](NC(=O)[C@H]([C@@H](C)O)NC(=O)[C@H](Cc4c[nH]c5ccccc45)NC1=O)C(=O)N[C@@H](CC(=O)O)C(=O)N[C@@H](CO)C(=O)N[C@@H](CCCCN)C(=O)N[C@@H](CCCNC(=N)N)C(=O)N[C@@H](C)C(=O)N3)NC(=O)[C@H](CCCNC(=N)N)NC(=O)[C@H](CC(C)C)NC(=O)CNC(=O)[C@H](CCCCNC(=O)CCOCCOCCOCCOCCOCCOCCOCCOCCOCCOCCOCCOCCN)NC2=O [compound 551] | 13 | – | – |
| C#CC[C@@H]1NC(=O)[C@@H]2CSSC[C@H](NC(=O)[C@H](CCC(=O)O)NC(=O)[C@@H](N)CC#N)C(=O)N[C@@H](CCC(N)=O)C(=O)N[C@@H](CCCCN)C(=O)N[C@@H](Cc3c[nH]c4ccccc34)C(=O)N[C@@H](CCCC)C(=O)N[C@@H](Cc3c[nH]c4ccccc34)C(=O)N[C@@H]([C@@H](C)O)C(=O)N[C@H]3CSSC[C@H](NC(=O)[C@H](CCCNC(=N)N)NC(=O)[C@H](CC(C)C)NC(=O)CNC1=O)C(=O)N[C@@H](CCCCN)C(=O)N[C@@H](CC(C)C)C(=O)N[C@@H](Cc1c[nH]c4ccccc14)C(=O)N[C@H](C(=O)N[C@@H](CCCNC(=N)N)C(=O)N[C@@H](CCCCN)C(=O)N[C@@H](CCC(=O)O)C(=O)N[C@H](C(N)=O)[C@@H](C)CC)CSSC[C@H](NC(=O)[C@H](CCC(=O)O)NC(=O)[C@H](CCCNC(=N)N)NC(=O)[C@H](CCC(=O)O)NC(=O)[C@H](CO)NC(=O)[C@H](CC(=O)O)NC3=O)C(=O)N2 [compound 756] | – | > 1000 | – |
| CCCC[C@@H]1NC(=O)[C@H](Cc2c[nH]c3ccccc23)NC(=O)[C@H](CCCCN)NC(=O)[C@H](CCC(N)=O)NC(=O)[C@@H](NC(=O)[C@H](Cc2ccc(O)cc2)NC(=O)CCN)CSSC[C@@H]2NC(=O)[C@@H]3CSSC[C@@H](C(=O)N[C@@H](CCCNC(=N)N)C(=O)N[C@@H](CCCCN)C(=O)N[C@H](C(=O)N[C@H](C(N)=O)[C@@H](C)CC)[C@@H](C)CC)NC(=O)[C@H](Cc4c[nH]c5ccccc45)NC(=O)[C@H](CC(C)C)NC(=O)[C@H](CCCCN)NC(=O)[C@H](CSSC[C@H](NC(=O)[C@H]([C@@H](C)O)NC(=O)[C@H](Cc4c[nH]c5ccccc45)NC1=O)C(=O)N[C@@H](CC(=O)O)C(=O)N[C@@H](CO)C(=O)N[C@@H](CCCCN)C(=O)N[C@@H](CCCNC(=N)N)C(=O)N[C@@H](C)C(=O)N3)NC(=O)[C@H](CCCNC(=N)N)NC(=O)[C@H](CC(C)C)NC(=O)CNC(=O)[C@H](CCC(=O)O)NC2=O [compound 376] | 3 | – | Nav1.5/Nav1.7 (Table 11): 731 |
| CC[C@H](C)[C@H](NC(=O)[C@@H](NC(=O)[C@H](CCCCN)NC(=O)[C@H](CCC(=O)O)NC(=O)[C@@H]1CSSC[C@@H]2NC(=O)[C@H](C)NC(=O)[C@H](CCCNC(=N)N)NC(=O)[C@H](CCCCN)NC(=O)[C@H](CO)NC(=O)[C@H](CC(=O)O)NC(=O)[C@@H]3CSSC[C@H](NC(=O)[C@H](CCCNC(=N)N)NC(=O)[C@H](CC(C)C)NC(=O)CNC(=O)[C@H](CCC(=O)O)NC(=O)[C@H](CSSC[C@H](NC(=O)[C@@H](N)Cc4ccc(O)cc4)C(=O)N[C@@H](CCC(N)=O)C(=O)N[C@@H](CCCCN)C(=O)N[C@@H](Cc4c[nH]c5ccccc45)C(=O)N[C@@H](CCSC)C(=O)N[C@@H](Cc4c[nH]c5ccccc45)C(=O)N[C@@H]([C@@H](C)O)C(=O)N3)NC2=O)C(=O)N[C@@H](CCCCN)C(=O)N[C@@H](CC(C)C)C(=O)N[C@@H](Cc2c[nH]c3ccccc23)C(=O)N1)[C@@H](C)CC)C(N)=O [compound 67] | – | – | IC50 (PatchXpress, tonic, Table 11, read-out: PX hNav1.7 Tonic IC50): > 1000 nM |
| [Phe6,Atz(500 Da EtO-PEG*-[Phe6,Atz13*]GpTx-1(1-34)1)13]GpTx-1(1-34) [Homodimeric Conjugate No. 4] | – | – | Wash out: Yes; IC50 (read-out: Nav1.7 PX IC50): 19 nM |
| C#CC[C@H](N)C(=O)N[C@@H](Cc1ccc(O)cc1)C(=O)N[C@H]1CSSC[C@@H]2NC(=O)[C@@H]3CSSC[C@@H](C(=O)N[C@@H](CCCNC(=N)N)C(=O)N[C@@H](CCCCN)C(=O)N[C@@H](Cc4c[nH]cn4)C(=O)N[C@H](C(N)=O)[C@@H](C)CC)NC(=O)[C@H](Cc4c[nH]c5ccccc45)NC(=O)[C@H](CC(C)C)NC(=O)[C@H](CCCCN)NC(=O)[C@H](CSSC[C@H](NC(=O)[C@H]([C@@H](C)O)NC(=O)[C@H](Cc4c[nH]c5ccccc45)NC(=O)[C@H](CCCC)NC(=O)[C@H](Cc4c[nH]c5ccccc45)NC(=O)[C@H](CCCCN)NC(=O)[C@H](CCC(N)=O)NC1=O)C(=O)N[C@@H](CC(=O)O)C(=O)N[C@@H](CO)C(=O)N[C@@H](CCCCN)C(=O)N[C@@H](CCCNC(=N)N)C(=O)N[C@@H](C)C(=O)N3)NC(=O)[C@H](CCCNC(=N)N)NC(=O)[C@H](CC(C)C)NC(=O)CNC(=O)[C@H](CCC(=O)O)NC2=O [compound 652] | – | 0.371 | – |
| C#CC[C@H](N)C(=O)N[C@@H](Cc1ccc(O)cc1)C(=O)N[C@H]1CSSC[C@@H]2NC(=O)[C@@H]3CSSC[C@@H](C(=O)N[C@@H](CCCNC(=N)N)C(=O)N[C@@H](CCCCN)C(=O)N[C@@H](CCC(=O)O)C(=O)N[C@H](C(N)=O)[C@@H](C)CC)NC(=O)[C@H](Cc4ccc5ccccc5c4)NC(=O)[C@H](CC(C)C)NC(=O)[C@H](CCCCN)NC(=O)[C@H](CSSC[C@H](NC(=O)[C@H]([C@@H](C)O)NC(=O)[C@H](Cc4c[nH]c5ccccc45)NC(=O)[C@H](CCCC)NC(=O)[C@H](Cc4c[nH]c5ccccc45)NC(=O)[C@H](CCCCN)NC(=O)[C@H](CCC(N)=O)NC1=O)C(=O)N[C@@H](CC(=O)O)C(=O)N[C@@H](CO)C(=O)N[C@@H](CCCCN)C(=O)N[C@@H](CCCNC(=N)N)C(=O)N[C@@H](C)C(=O)N3)NC(=O)[C@H](CCCNC(=N)N)NC(=O)[C@H](CC(C)C)NC(=O)CNC(=O)[C@H](CCC(=O)O)NC2=O [compound 852] | – | 182 | – |
| CCCC[C@@H]1NC(=O)[C@H](Cc2c[nH]c3ccccc23)NC(=O)[C@H](CCCCN)NC(=O)[C@H](CCC(N)=O)NC(=O)[C@@H](NC(=O)[C@H](Cc2ccc(O)cc2)NC(=O)[C@H](CCC)NC(=O)[C@H](N)CC(C)C)CSSC[C@@H]2NC(=O)[C@@H]3CSSC[C@@H](C(=O)N[C@@H](CCCNC(=N)N)C(=O)N[C@@H](CCCCN)C(=O)N[C@@H](CCC(=O)O)C(=O)N[C@H](C(N)=O)[C@@H](C)CC)NC(=O)[C@H](Cc4c[nH]c5ccccc45)NC(=O)[C@H](CC(C)C)NC(=O)[C@H](CCCCN)NC(=O)[C@H](CSSC[C@H](NC(=O)[C@H]([C@@H](C)O)NC(=O)[C@H](Cc4c[nH]c5ccccc45)NC1=O)C(=O)N[C@@H](CC(=O)O)C(=O)N[C@@H](CO)C(=O)N[C@@H](CCCCN)C(=O)N[C@@H](CCCNC(=N)N)C(=O)N[C@@H](CCCCNC(=O)CCOCCOCCOCCOCCOCCOCCOCCOCCOCCOCCOCCOCCN)C(=O)N3)NC(=O)[C@H](CCCNC(=N)N)NC(=O)[C@H](CC(C)C)NC(=O)CNC(=O)[C@H](CCC(=O)O)NC2=O [compound 472] | 42 | – | Nav1.5/Nav1.7 (Table 11): 349 |
| C#CC[C@H](N)C(=O)N[C@@H](Cc1ccc(O)cc1)C(=O)N[C@H]1CSSC[C@@H]2NC(=O)[C@@H]3CSSC[C@@H](C(=O)N[C@@H](CCCNC(=N)N)C(=O)N[C@@H](CCCCN)C(=O)N[C@@H](CCC(=O)O)C(=O)N[C@H](C(N)=O)[C@@H](C)CC)NC(=O)[C@H](Cc4cccc5ccccc45)NC(=O)[C@H](CC(C)C)NC(=O)[C@H](CCCCN)NC(=O)[C@H](CSSC[C@H](NC(=O)[C@H]([C@@H](C)O)NC(=O)[C@H](Cc4c[nH]c5ccccc45)NC(=O)[C@H](CCCC)NC(=O)[C@H](Cc4c[nH]c5ccccc45)NC(=O)[C@H](CCCCN)NC(=O)[C@H](CCC(N)=O)NC1=O)C(=O)N[C@@H](CC(=O)O)C(=O)N[C@@H](CO)C(=O)N[C@@H](CCCCN)C(=O)N[C@@H](CCCNC(=N)N)C(=O)N[C@@H](C)C(=O)N3)NC(=O)[C@H](CCCNC(=N)N)NC(=O)[C@H](CC(C)C)NC(=O)CNC(=O)[C@H](CCC(=O)O)NC2=O [compound 851] | – | 32 | – |
| C#CC[C@H](N)C(=O)N[C@@H](Cc1ccc(O)cc1)C(=O)N[C@H]1CSSC[C@@H]2NC(=O)[C@@H]3CSSC[C@@H](C(=O)N[C@@H](CCCNC(=N)N)C(=O)N[C@@H](CCCCN)C(=O)N[C@@H](CCC(=O)O)C(=O)N[C@H](C(N)=O)[C@@H](C)CC)NC(=O)[C@H](Cc4c[nH]c5ccccc45)NC(=O)[C@H](CC(C)C)NC(=O)[C@H](CCCCN)NC(=O)[C@H](CSSC[C@H](NC(=O)[C@H]([C@@H](C)O)NC(=O)[C@H](Cc4c[nH]c5ccccc45)NC(=O)[C@H](CCCC)NC(=O)[C@H](Cc4cccc5ccccc45)NC(=O)[C@H](CCCCN)NC(=O)[C@H](CCC(N)=O)NC1=O)C(=O)N[C@@H](CC(=O)O)C(=O)N[C@@H](CO)C(=O)N[C@@H](CCCCN)C(=O)N[C@@H](CCCNC(=N)N)C(=O)N[C@@H](C)C(=O)N3)NC(=O)[C@H](CCCNC(=N)N)NC(=O)[C@H](CC(C)C)NC(=O)CNC(=O)[C@H](CCC(=O)O)NC2=O [compound 841] | – | 70.9 | – |
